Reference: article PMC3814675, “Structures of B-Lymphotropic Polyomavirus VP1 in Complex with Oligosaccharide Ligands” (PLoS Pathogens, 2013)

Key:
[1] = target: T1, LPyV VP1 (B-lymphotropic polyomavirus, UniProt P04010); test: X-ray crystal structure (soaked crystals), […] Å; format: binding; conditions: 40 mM ligand soak 45 min, 0.1 M sodium acetate pH 4.8, 0.2 M CaCl2; outer-surface sialic acid cleft between two VP1 monomers; also bound on glycan array as lipid-linked probe
T1 construct: VP1 residues 28-301 (27 N-terminal and 66 C-terminal residues truncated), pET15b, E. coli BL21(DE3); His-tag cut with thrombin for crystals leaving GSHM (tag kept for glycan array); unassembled pentamer
T1 sequence (P04010 29-302): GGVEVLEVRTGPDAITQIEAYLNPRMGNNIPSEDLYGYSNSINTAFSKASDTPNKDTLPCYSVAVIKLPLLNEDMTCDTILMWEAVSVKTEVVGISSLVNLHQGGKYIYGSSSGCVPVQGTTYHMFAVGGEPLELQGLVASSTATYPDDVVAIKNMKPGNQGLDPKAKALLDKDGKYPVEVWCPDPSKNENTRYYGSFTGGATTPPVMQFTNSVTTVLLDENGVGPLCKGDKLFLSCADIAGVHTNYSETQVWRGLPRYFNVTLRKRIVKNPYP

[2] = target: T1, LPyV VP1; test: X-ray crystal structure (soaked crystals), […] Å; format: binding; conditions: 40 mM ligand soak 10 min, 0.1 M sodium acetate pH 4.8, 0.2 M CaCl2; same cleft as 3SL; also bound on glycan array as lipid-linked probe
[3] = target: the molecule itself; test: crystal structure; unliganded LPyV VP1 and crystals soaked with 3SL or 3SLN; vapor diffusion against isopropanol, 0.1 M sodium acetate pH 4.8, 0.2 M calcium chloride; two VP1 pentamers in the asymmetric unit

CC(=O)N[C@H]1[C@H]([C@H](O)[C@H](O)CO)O[C@@](O[C@H]2[C@@H](O)[C@@H](CO)O[C@@H](O[C@H]3[C@H](O)[C@@H](O)C(O)O[C@@H]3CO)[C@@H]2O)(C(=O)O)C[C@@H]1O (stereo partly drawn) [3SL, Neu5Ac-α2,3-Gal-β1,4-Glc]
X-ray crystal structure (soaked crystals), 1.48 Å [1]: entry codes 4MBX (unliganded LPyV VP1), 4MBY (complex with 3SL) and 4MBZ (complex with 3SLN)

CC(=O)N[C@H]1[C@H]([C@H](O)[C@H](O)CO)O[C@@](O[C@H]2[C@@H](O)[C@@H](CO)O[C@@H](O[C@H]3[C@H](O)[C@@H](NC(C)=O)C(O)O[C@@H]3CO)[C@@H]2O)(C(=O)O)C[C@@H]1O (stereo partly drawn) [3SLN, Neu5Ac-α2,3-Gal-β1,4-GlcNAc]
X-ray crystal structure (soaked crystals), 1.75 Å [2]: 4MBY (complex with 3SL) and 4MBZ (complex with 3SLN)

B1: B-Lymphotropic Polyomavirus (LPyV) VP1 pentamer, amino acids 28-301 (domain or fragment)
chain: GSHMKGGVEVLEVRTGPDAITQIEAYLNPRMGNNIPSEDLYGYSNSINTAFSKASDTPNKDTLPCYSVAVIKLPLLNEDMTCDTILMWEAVSVKTEVVGISSLVNLHQGGKYIYGSSSGCVPVQGTTYHMFAVGGEPLELQGLVASSTATYPDDVVAIKNMKPGNQGLDPKAKALLDKDGKYPVEVWCPDPSKNENTRYYGSFTGGATTPPVMQFTNSVTTVLLDENGVGPLCKGDKLFLSCADIAGVHTNYSETQVWRGLPRYFNVTLRKRIVKNPY
notes: non-native amino acids left at the N-terminus after thrombin cleavage of the His-tag; Major capsid protein VP1 of B-Lymphotropic Polyomavirus, K38 strain, amino acids 28-301 (truncations of 27 and 66 residues at the N- and C-termini); Cannot assemble into capsids because of the truncations; The form used for crystals had the His-tag cleaved; the glycan array used the His-tagged form (no …)
stoichiometry N [3]: 5
